# Experimental data published in US6737383B1, “Herbicidal oxadiazolidines” (priority 1999, dated 2004).
# Columns and labels:
# bedstraw = experiment: Test B pre/postemergence bedstraw; assay type: in vivo, Galium aparine
# Outline: (§1)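 Herbicidal effect was estimated by eye on a ten-point control scale after plants spent twelve to sixteen days in a greenhouse following soil or foliar treatment. Foliar sprays targeted plants at one to four leaves; all doses were formulated in a non-phytotoxic solvent with surfactant.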
# pigweed = experiment: Test B pre/postemergence pigweed; assay type: in vivo, Amaranthus retroflexus
# Outline: as §1
# wild oat = experiment: Test B pre/postemergence wild oat; assay type: in vivo, Avena fatua
# Outline: as §1
# sugar beet = experiment: Test B pre/postemergence sugar beet; assay type: in vivo, Beta vulgaris
# Outline: as §1
# morningglory = experiment: Test B pre/postemergence morningglory; assay type: in vivo, Ipomoea hederacea
# Outline: as §1
# cocklebur = experiment: Test B pre/postemergence cocklebur; assay type: in vivo, Xanthium strumarium
# Outline: as §1
# purple nutsedge = experiment: Test B pre/postemergence purple nutsedge; assay type: in vivo, Cyperus rotundus
# Outline: as §1
# rice = experiment: Test B flood test rice; assay type: in vivo, Oryza sativa
# Outline: (§2)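 Plants were grown to the 2-leaf stage before treatment with test chemical, then held in a greenhouse for twelve to sixteen days. Injury was visually rated against untreated controls on a 0–10 scale, where 0 is no effect and 10 is complete control.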
# soybean = experiment: Test B pre/postemergence soybean; assay type: in vivo, Glycine max
# Outline: as §1
# giant foxtail = experiment: Test B pre/postemergence giant foxtail; assay type: in vivo, Setaria faberii
# Outline: as §1
# duck salad = experiment: Test B flood test duck salad; assay type: in vivo, Heteranthera limosa
# Outline: as §2
# crabgrass = experiment: Test B pre/postemergence crabgrass; assay type: in vivo, Digitaria sanguinalis
# Outline: as §1
# blackgrass = experiment: Test B pre/postemergence blackgrass; assay type: in vivo, Alopecurus myosuroides
# Outline: as §1
# corn = experiment: Test B pre/postemergence corn; assay type: in vivo, Zea mays
# Outline: as §1
# smallflower flatsedge = experiment: Test B flood test smallflower flatsedge; assay type: in vivo, Cyperus difformis
# Outline: as §2
# surinam grass = experiment: Test B pre/postemergence surinam grass; assay type: in vivo, Brachiaria decumbens
# Outline: as §1
# [1] = Postemergence, Rate 62 g/ha, scale 0 to 10, 0 is no effect, 10 is complete control
# [2] = Postemergence, Rate 250 g/ha, scale 0 to 10, 0 no effect, 10 complete control
# [3] = Preemergence, Rate 62 g/ha, scale 0 to 10 (0 no effect, 10 complete control)
# [4] = Preemergence, Rate 125 g/ha, scale 0 to 10 (0 no effect, 10 complete control)
# [5] = Preemergence, Rate 250 g/ha, scale of 0 to 10 where 0 is no effect and 10 is complete control
# [6] = Preemergence, Rate 500 g/ha, scale 0 (no effect) to 10 (complete control)
# [7] = Rate 125 g/ha, Postemergence, scale 0 to 10, 0 no effect, 10 complete control
# [8] = Rate 500 g/ha, Postemergence, scale 0 to 10, 0 no effect, 10 complete control
# [9] = Rate 125 g/ha, Postemergence section (flood test species), scale 0 to 10, 0 no effect, 10 complete control
# [10] = Rate 500 g/ha, listed under Postemergence (flood test species), scale 0 to 10, 0 no effect, 10 complete control
# [11] = flood test, listed under Postemergence, Rate 250 g/ha, scale 0 to 10, 0 no effect, 10 complete control
smiles,measurement,setting,value
Cc1cccc(C(C)C)c1-n1c(=O)on(C(=O)N(c2ccc(F)cc2)C(C)C)c1=O [Compound 65],Bedstraw plant response rating,bedstraw; [1],0
same,Bedstraw plant response rating,bedstraw; [2],0
same,Bedstraw plant response rating,bedstraw; [3],0
same,"Plant response rating, Bedstraw",bedstraw; [4],0
same,"Plant response rating, Bedstraw",bedstraw; [5],2
same,Bedstraw plant response rating,bedstraw; [6],3
same,Bedstraw plant response rating,bedstraw; [7],0
same,Bedstraw plant response rating,bedstraw; [8],0
same,Redroot pigweed plant response rating,pigweed; [1],0
same,Redroot pigweed plant response rating,pigweed; [2],0
same,Redroot pigweed plant response rating,pigweed; [3],0
same,"Plant response rating, Redroot pigweed",pigweed; [4],0
same,"Plant response rating, Redroot pigweed",pigweed; [5],0
same,Redroot pigweed plant response rating,pigweed; [6],3
same,Redroot pigweed plant response rating,pigweed; [7],0
same,Redroot pigweed plant response rating,pigweed; [8],0
same,Wild oats plant response rating,wild oat; [1],0
same,Wild oats plant response rating,wild oat; [2],0
same,Wild oats plant response rating,wild oat; [3],0
same,"Plant response rating, Wild oats",wild oat; [4],0
same,"Plant response rating, Wild oats",wild oat; [5],0
same,Wild oats plant response rating,wild oat; [6],0
same,Wild oats plant response rating,wild oat; [7],0
same,Wild oats plant response rating,wild oat; [8],0
same,Sugarbeets plant response rating,sugar beet; [1],0
same,Sugarbeets plant response rating,sugar beet; [2],0
same,Sugarbeets plant response rating,sugar beet; [3],0
same,"Plant response rating, Sugarbeets",sugar beet; [4],0
same,"Plant response rating, Sugarbeets",sugar beet; [5],0
same,Sugarbeets plant response rating,sugar beet; [6],0
same,Sugarbeets plant response rating,sugar beet; [7],0
same,Sugarbeets plant response rating,sugar beet; [8],0
same,Morningglory plant response rating,morningglory; [1],0
same,Morningglory plant response rating,morningglory; [2],1
same,Morningglory plant response rating,morningglory; [3],0
same,"Plant response rating, Morningglory",morningglory; [4],0
same,"Plant response rating, Morningglory",morningglory; [5],0
same,Morningglory plant response rating,morningglory; [6],0
same,Morningglory plant response rating,morningglory; [7],1
same,Morningglory plant response rating,morningglory; [8],2
same,Cocklebur plant response rating,cocklebur; [1],0
same,Cocklebur plant response rating,cocklebur; [2],0
same,Cocklebur plant response rating,cocklebur; [3],0
same,"Plant response rating, Cocklebur",cocklebur; [4],0
same,"Plant response rating, Cocklebur",cocklebur; [5],0
same,Cocklebur plant response rating,cocklebur; [6],0
same,Cocklebur plant response rating,cocklebur; [7],0
same,Cocklebur plant response rating,cocklebur; [8],0
same,Nutsedge plant response rating,purple nutsedge; [1],0
same,Nutsedge plant response rating,purple nutsedge; [2],0
same,Nutsedge plant response rating,purple nutsedge; [3],0
same,"Plant response rating, Nutsedge",purple nutsedge; [4],0
same,"Plant response rating, Nutsedge",purple nutsedge; [5],2
same,Nutsedge plant response rating,purple nutsedge; [6],3
same,Nutsedge plant response rating,purple nutsedge; [7],0
same,Nutsedge plant response rating,purple nutsedge; [8],0
same,Rice plant response rating,rice; [1],0
same,Rice plant response rating,rice; [9],0
same,Rice plant response rating,rice; [10],3
same,Rice plant response rating,rice; [11],0
same,Soybean plant response rating,soybean; [1],1
same,Soybean plant response rating,soybean; [2],1
same,Soybean plant response rating,soybean; [3],0
same,"Plant response rating, Soybean",soybean; [4],0
same,"Plant response rating, Soybean",soybean; [5],0
same,Soybean plant response rating,soybean; [6],0
same,Soybean plant response rating,soybean; [7],1
same,Soybean plant response rating,soybean; [8],1
same,Giant foxtail plant response rating,giant foxtail; [1],0
same,Giant foxtail plant response rating,giant foxtail; [2],0
same,Giant foxtail plant response rating,giant foxtail; [3],3
same,"Plant response rating, Giant foxtail",giant foxtail; [4],4
same,"Plant response rating, Giant foxtail",giant foxtail; [5],4
same,Giant foxtail plant response rating,giant foxtail; [6],9
same,Giant foxtail plant response rating,giant foxtail; [7],0
same,Giant foxtail plant response rating,giant foxtail; [8],0
same,Ducksalad plant response rating,duck salad; [1],0
same,Ducksalad plant response rating,duck salad; [9],0
same,Ducksalad plant response rating,duck salad; [10],0
same,Ducksalad plant response rating,duck salad; [11],0
same,Crabgrass plant response rating,crabgrass; [1],0
same,Crabgrass plant response rating,crabgrass; [2],0
same,Crabgrass plant response rating,crabgrass; [3],0
same,"Plant response rating, Crabgrass",crabgrass; [4],2
same,"Plant response rating, Crabgrass",crabgrass; [5],4
same,Crabgrass plant response rating,crabgrass; [6],9
same,Crabgrass plant response rating,crabgrass; [7],0
same,Crabgrass plant response rating,crabgrass; [8],0
same,Blackgrass plant response rating,blackgrass; [1],0
same,Blackgrass plant response rating,blackgrass; [2],0
same,Blackgrass plant response rating,blackgrass; [3],0
same,"Plant response rating, Blackgrass",blackgrass; [4],0
same,"Plant response rating, Blackgrass",blackgrass; [5],0
same,Blackgrass plant response rating,blackgrass; [6],0
same,Blackgrass plant response rating,blackgrass; [7],0
same,Blackgrass plant response rating,blackgrass; [8],0
same,Corn plant response rating,corn; [1],0
same,Corn plant response rating,corn; [2],0
same,Corn plant response rating,corn; [3],0
same,"Plant response rating, Corn",corn; [4],0
same,"Plant response rating, Corn",corn; [5],0
same,Corn plant response rating,corn; [6],0
same,Corn plant response rating,corn; [7],0
same,Corn plant response rating,corn; [8],0
same,S. Flatsedge plant response rating,smallflower flatsedge; [1],0
same,S. Flatsedge plant response rating,smallflower flatsedge; [9],0
same,S. Flatsedge plant response rating,smallflower flatsedge; [10],0
same,S. Flatsedge plant response rating,smallflower flatsedge; [11],0
same,B. signalgrass plant response rating,surinam grass; [1],0
same,B. signalgrass plant response rating,surinam grass; [2],0
same,B. signalgrass plant response rating,surinam grass; [3],0
same,"Plant response rating, B. signalgrass",surinam grass; [4],0
same,"Plant response rating, B. signalgrass",surinam grass; [5],0
same,B. signalgrass plant response rating,surinam grass; [6],0
same,B. signalgrass plant response rating,surinam grass; [7],0
same,B. signalgrass plant response rating,"surinam grass; Rate 500 g/ha, Postemergence, scale of 0 to 10 where 0 is no effect and 10 is complete control",0
